Results from publication PMC9686985, “Chimeric Peptides Derived from Bovine Lactoferricin and Buforin II: Antifungal Activity against Reference Strains and Clinical Isolates of Candida spp” (Antibiotics, 2022).
Converted amounts (≈) assume the structure as drawn. Read-outs that look alike come from different tables or passages of the source. Blank lines part the entries; values can stand above or below the compound they belong to. Non-standard residues stand in square brackets, D forms with d. Residues, ends and D or L forms follow the SMILES beside them. Ahx = NCCCCCC(=O)O

How the values were obtained:
E. coli = conditions: reported; cited from earlier work
Description: LfcinB (20–25): RRWQWR is the shortest sequence derived from LfcinB with antibacterial, antifungal, and anticancer activity. In similar way, Buforin II (BFII) is an antimicrobial peptide with activity against Gram-positive and Gram-negative bacteria as well as fungi. Palindromic sequences have been designed from the 4-residue motif (RLLR) of Buforin II, and their antibacterial activity has been evaluated against Gram-negative and Gram-positive strains. The palindrome [RLLR]5: […] was reported to have an MIC of 0.7 µM against E. coli. Chimeras containing the minimum motif RRWQW ...

C. albicans 256 HUSI-PUJ [1] = assay type: cell-based, Candida albicans; conditions: for MFC: 24 h; for MIC: 48 h
Experimental: (§1) Antifungal susceptibility testing was carried out using the broth microdilution (BMD) method, following the CLSI M27-A3 guidelines with slight modifications. Briefly, cells (0.5–2.5 × 10^3 CFU/mL) were incubated with peptides (200, 100, 50, 25, 12.5, and 6.25 µg/mL) at 37 °C for 48 h. MICs were visualized and densitometry (595 nm, microplate reader, Bio-Rad, ᵢMark^TM) was used to determine the lowest concentration of peptide that caused a significant decrease (MIC/2 or ≥50%) compared with the growth control (cells incubated in absence of peptide) (n = 3). In order to verify that the peptides were able to kill the yeast cells, the plates were also evaluated for minimum fungicidal concentration (MFC). Briefly, aliquots from each well from susceptibility testing assays were transferred to plates containing Sabouraud dextrose agar (SDA), which were then incubated at 37 °C for 24 h. The highest dilution with no growth on the agar plate was considered to be the MFC.

C. albicans ATCC SC5314 = assay type: cell-based, Candida albicans; conditions: for MFC: ATCC SC5314, 24 h
Experimental: as §1

C. albicans 256 = assay type: cell-based, Candida albicans; conditions: 256, 48 h
Experimental: (§2) A time-kill kinetic assay was carried out according to the method previously described by Pfaller and coworkers with minor modifications. The peptides (C5, C6, C8, and C9) diluted in RPMI were tested at a range of concentrations: 0 (control), 0.2, 0.5, 1, and 2 times the MIC value for each strain. The isolates were subcultured on SBD, and then an inoculum was adjusted to a 0.5–2.5 × 10^3 CFU/mL in an RPMI 1640 medium. Yeast inoculum (150 uL) was added to a 100-well plate containing serial dilutions of the peptides. The plates were incubated with agitation at 37 °C in a plate reader (Bioscreen C MBR automated turbidometric analyzer, Growth Curves Ltd., Helsinki, Finland), which takes hourly absorbance readings. Moreover, fluconazole MICs were used as a control. The readings were analyzed with Bioscreen software (Growth Curves USA, Piscataway, NJ, USA) and GraphPad Prism 8.0.1 (GraphPad Soft-ware, San Diego, CA, USA). Statistical comparisons were made using an analysis of variance (two-way ANOVA) followed by a Tukey–Kramer post hoc test. P values less than 0.005 were considered significant. […] Moreover, previously determined FLC MICs (data not shown) were used as a control.

C. albicans SC5314 = assay type: cell-based, Candida albicans; conditions: SC5314, 48 h
Experimental: as §2

human red blood cells = test system: human red blood cells; design: method as in PMID 33369144; conditions: cited from earlier work
C. glabrata 1875 CHU-PUJ = assay type: cell-based
Experimental: (§3) The in vitro interactions between the peptides (C6, C8, and C9) and the FLC drug were evaluated in a checkerboard assay, as previously described by Cokol et al.. Briefly, each isolate was prepared by picking colonies from an overnight culture in SBD at 37 °C and suspended in a sterile normal saline PBS buffer. The fungal inoculum was adjusted to 0.5 MacFarland and the inoculum was adjusted to 0.5–2.5 × 10^3 CFU/mL. The drug-peptide combinations were formed over a range of concentrations: 0 (control) and 0.06 to 2 times the MIC [51]. The fractional inhibitory concentration index (FICI) was calculated as follows:
(§4) FICI=CML peptide in combination/CMI peptide alone+CML FLC in combination/CMI FLC alone
(§5) The calculated FICI was reported as synergy with values FICI ≤ 0.5, additive FICI > 0.5–1, indifference FICI > 1–4, and antagonism FICI ≥ 4 [52].
(§6) A synergistic effect was considered to be when the effect of the combination exceeded the effects of the individual components. An additive effect was when the effect of the combination was equal to the sum of the effects of the individual components.

C. auris 537 HUSI-PUJ = assay type: cell-based
Experimental: as §3, §4, §5, §6

C. glabrata ATCC 2001 = assay type: cell-based
Experimental: as §3, §4, §5, §6

C. auris 001 HUSI-PUJ = assay type: cell-based
Experimental: as §3, §4, §5, §6

C. albicans 256 HUSI-PUJ [2] = assay type: cell-based, Candida albicans; conditions: 256 HUSI-PUJ
Experimental: as §3, §4, §5, §6

C. auris 001 = assay type: cell-based; conditions: 001, 48 h
Experimental: as §1

C. auris 537 = assay type: cell-based; conditions: 537, 48 h
Experimental: as §1

C. glabrata 1875 = assay type: cell-based; conditions: 1875, 48 h
Experimental: as §1

[3] = checkerboard run with C6, unit from footnote of Table 4

Compound: RLLRRLLRRLLRRLLRRLLR [[RLLR]5, palindrome designed from the RLLR motif of Buforin II]
MIC (E. coli): 0.7 µM

Compound: CC(C)C[C@H](NC(=O)[C@H](CC(C)C)NC(=O)[C@H](CCCCN)NC(=O)[C@H](CCCCN)NC(=O)[C@H](CC(C)C)NC(=O)[C@H](CC(C)C)NC(=O)[C@H](CCCCN)NC(=O)CCCCCNC(=O)[C@H](CCCNC(=N)N)NC(=O)[C@H](Cc1c[nH]c2ccccc12)NC(=O)[C@H](CCC(N)=O)NC(=O)[C@H](Cc1c[nH]c2ccccc12)NC(=O)[C@H](CCCNC(=N)N)NC(=O)[C@@H](N)CCCNC(=N)N)C(=O)N[C@@H](CCCCN)C(N)=O [C5] (H-RRWQWR[Ahx]KLLKKLLK-NH2)
MFC (C. albicans 256 HUSI-PUJ [1]; 256 HUSI-PUJ): 97 µM (≈ 200 µg/mL)
MFC (C. albicans ATCC SC5314): 97 µM (≈ 200 µg/mL)
Inhibition of growth (C. albicans 256): more than 90%
Inhibition of growth (C. albicans SC5314): more than 90%
Hemolytic effect (human red blood cells): 2–4%

MIC (C. albicans 256 HUSI-PUJ [1]; FLC-resistant clinical isolate, broth microdilution CLSI M27-A3, 37 °C, ≥50% decrease vs growth control, n = 3): 64 µg/mL
MIC (C. albicans ATCC SC5314; FLC-sensitive reference strain, broth microdilution CLSI M27-A3, 37 °C, 48 h, ≥50% decrease vs growth control, n = 3): 1 µg/mL
MICb: MIC of fluconazole alone (C. glabrata 1875 CHU-PUJ; [3]): 4 µg/mL
MICb: MIC of fluconazole alone (C. auris 537 HUSI-PUJ; [3]): 64 µg/mL
MICb: MIC of fluconazole alone (C. glabrata ATCC 2001; [3]): 0.3 µg/mL
MICb: MIC of fluconazole alone (C. auris 001 HUSI-PUJ; [3]): 32 µg/mL
Compound: OC(Cn1cncn1)(Cn1cncn1)c1ccc(F)cc1F [FLC, fluconazole, reference compound]

MIC (C. albicans 256 HUSI-PUJ [1]; 256 HUSI-PUJ): 24 µM
MIC (C. albicans ATCC SC5314; ATCC SC5314, 48 h): 24 µM
MICa: MIC of the chimeric peptide alone (C. albicans 256 HUSI-PUJ [2]): 100 µg/mL
MICa: MIC of the chimeric peptide alone (C. glabrata 1875 CHU-PUJ; 1875 CHU-PUJ): 400 µg/mL
MICa: MIC of the chimeric peptide alone (C. auris 537 HUSI-PUJ; 537 HUSI-PUJ): 400 µg/mL
MICa: MIC of the chimeric peptide alone (C. glabrata ATCC 2001; ATCC 2001): 100 µg/mL
MICa: MIC of the chimeric peptide alone (C. auris 001 HUSI-PUJ; 001 HUSI-PUJ): 400 µg/mL
MIC (C. auris 001): 96 µM (≈ 201 µg/mL)
MIC (C. auris 537): 96 µM (≈ 201 µg/mL)
MIC (C. glabrata 1875): 96 µM (≈ 201 µg/mL)
Compound: CC(C)C[C@H](NC(=O)[C@H](CC(C)C)NC(=O)[C@H](CCCNC(=N)N)NC(=O)[C@H](CCCNC(=N)N)NC(=O)[C@H](CC(C)C)NC(=O)[C@H](CC(C)C)NC(=O)[C@H](CCCNC(=N)N)NC(=O)CCCCCNC(=O)[C@H](CCCCN)NC(=O)[C@H](Cc1c[nH]c2ccccc12)NC(=O)[C@H](CCC(N)=O)NC(=O)[C@H](Cc1c[nH]c2ccccc12)NC(=O)[C@H](CCCCN)NC(=O)[C@@H](N)CCCCN)C(=O)N[C@@H](CCCNC(=N)N)C(N)=O [C6] (H-KKWQWK[Ahx]RLLRRLLR-NH2)
MFC (C. albicans 256 HUSI-PUJ [1]; 256 HUSI-PUJ): 48 µM (≈ 100 µg/mL)
MFC (C. albicans ATCC SC5314): 48 µM (≈ 100 µg/mL)
Inhibition of growth (C. albicans 256): more than 90%
Inhibition of growth (C. albicans SC5314): more than 90%
Hemolytic effect (human red blood cells): 2–4%
